Experimental findings from patent US11186588B2 (AYUMI PHARMACEUTICAL CORPORATION, priority 2017, dated 2021) are described below.

The structures appear in SMILES notation.

Series [1] has as its system type II collagen-induced arthritis. Nature of the series: Rat type II collagen-induced arthritis model evaluation test. Format: in vivo, LEW/CrlCrlj rats. The settings on record: oral 6 mg/mL solution at 5 mL/kg once a day from Day 12, hind limb volume on Day 21, rats. How it is done:
In order to evaluate the inhibitory action for autoimmune and inflammatory diseases of the present compounds, the evaluation of Rat type II collagen-induced arthritis model was carried out. The specific method is described below.
0.05 mol/L acetic acid was added to bovine type II collagen (Collagen Research Center, Cat No. K42) so that it became 2 mg/mL on the day before primary sensitization and secondary sensitization, and the mixture was allowed to stand overnight in a refrigerator to dissolve the material. Immediately before sensitization, it was mixed with an equal amount of Freund's incomplete adjuvant (available from Difco, Cat No. 263910) to prepare an emulsion for sensitization.
An appropriate amount of each compound was weighed, triturated with an agate mortar, and suspended or dissolved in 1% methyl cellulose solution to prepare 6 mg/mL solution.
LEW/CrlCrlj rats (female, purchased from Charles River Laboratories Japan, Inc.) were weighted on the day of primary sensitization (Day 0) and primary grouped to an arthritis non-induced group and an arthritis induced group based on the measured body weight using a random number. The rats (other than the arthritis non-induced group) were thereafter administrated the emulsion for sensitization ([…]) into the skin of the dorsum (divided into 5 portions) under general anesthesia with isoflurane inhalation (available from Mylan Seiyaku Ltd.). Seven days after the primary sensitization (Day 7), the rats (other than the arthritis non-induced group) were manually held in hands and administered the emulsion for sensitization (100 μL) into the skin of the tail. On Day 12, the rats developing arthritis were selected, a random number was used to avoid difference in an average hind limb volume between the groups, and the arthritis induced group was secondary grouped to a control group and each compound-administered group, wherein each group contained 8 samples. The rats were forced orally administered 1% methyl cellulose solution (arthritis non-induced group and control group) or each administration solution comprising the compound (each compound-administered group) at a dose of 5 mL/kg into stomach using a feeding needle once a day from Day 12. The volume of both hind limbs of each rat was measured using a plethysmometer (from Unicom) on Day 0, 4, 7, 12, 14, 18 and 21.
(Calculation of Limb Edema Suppression Rate) The limb edema suppression rate (%) was calculated by the following equation using Microsoft EXCEL 2010. Limb edema suppression rate (%)=100−{(average value of hind limb volume of each compound-administered group on Day 21)−(average value of hind limb volume of arthritis non-induced group on Day 21))/(average value of hind limb volume of control group on Day 21)−(average value of hind limb volume of arthritis non-induced group on Day 21)}×100

Series [2] in a line: Pharmacokinetics test in rats (oral administration). The class given is in vivo, LEW/CrlCrlj rats. The method, then:
In order to evaluate the transition of plasma concentration of the present compound after oral administration, pharmacokinetics was evaluated in rats. The specific method is described below.
Appropriate amounts of Example 71 and various salts thereof were weighed, triturated with an agate mortar, and suspended or dissolved in 1% methyl cellulose solution to 2 mg/mL (as a converted quantity of Example 71 considering the correction of purify).
LEW/CrlCrlj rats (male, purchased form Charles River Laboratories Japan, Inc.) were weighted, a random number based on the measured body weight was used to avoid difference in average body weight among groups, and the rats were divided into groups, wherein each groups contained 4 rats. The rats were manually held in hands and forced orally administered each administration solution comprising the compound at a dose of 5 mL/kg into stomach using a feeding needle. At 0.5, 1, 3, 6 and 24 hours after the administration of each administration solution comprising the compound, the rats were manually held in hands, and blood was collected from the jugular vein or subclavian vein using a heparin-treated injection syringe. The obtained blood was centrifuged at 1,500 G for 10 minutes, and plasma was collected as an actual sample. In addition, plasma was collected from rats before the administration of the compound in the same manner, which was used as blank plasma. The collected actual samples and blank plasma were stored in a freezer set at −70° C. until the measurement of the compound concentration. To 20 μL of each actual sample were added 20 μL of acetonitrile (available from Kishida Chemical Co., Ltd., Cat No. 140-00401), 100 μL of MilliQ water and 20 μL of the internal standard solution to prepare an analytical sample. In addition, to 20 μL of blank plasma were added 20 μL or 40 μL of acetonitrile (available from Kishida Chemical Co., Ltd., Cat No. 140-00401) and 100 μL of MilliQ water (a blank sample or a zero sample, respectively). A standard sample for a calibration curve was prepared by mixing 20 μL of blank plasma, 20 μL of the standard solution for a calibration curve in each concentration, 100 μL of MilliQ water and 20 μL of the internal standard solution. Whole amount of the prepared each sample was applied to a diatomaceous earth column for liquid-liquid extraction (available from Biotage, Cat No. 820-0200), tert-butyl methyl ether (available from Kanto Chemical Co., Inc., Cat No. 04418-5B) was added and eluted by natural dropping, and the obtained eluate was concentrated to dryness under a nitrogen stream. The residue was dissolved in the re-dissolved solution and 10 μL of each sample was injected into the LC/MS/MS apparatus.
LC/MS/MS analysis was carried out under the following conditions. Analytical column: Hydrosphere C18, 3 μm, 2.0 mm I.D.×50 mm (from YMC, Cat No. HS12S03-0502WT)
Flow rate: 0.3 mL/min. Column temperature: 50° C. Peak area calculation, peak area ratio calculation, preparation of calibration and quantification used in calculating the concentration for the LC/MS/MS analysis were carried out by Analyst ver.1.6.2 (available from AB Sciex). In addition, by using the obtained concentration measurement results, these were analyzed by Non-compartmental model of a pharmacokinetics analysis program WinNonlin ver.6.1 (Pharsight Corporation), and the pharmacokinetics parameter was calculated.

[3] abbreviates: male, LEW/CrlCrlj, rat, plasma, 10 mg/kg, oral 2 mg/mL solution at 5 mL/kg, mean n = 4.

On to `Cc1sc2c(c1C)C(c1ccc(Cl)cc1)=NN(Cc1ccccn1)c1nnc(C)n1-2` [Example 5, 4-(4-chlorophenyl)-2,3,9-trimethyl-6-(pyridin-2-ylmethyl)-6H-thieno[2,3-e][1,2,4]triazolo[3,4-c][1,2,4]triazepine], for which the “Limb edema suppression rate(%)” value in series [1] is 92.9%.
The same measure, in the same setting: with `Cc1sc2c(c1C)C(c1ccc(Cl)cc1)=NN(Cc1cccnc1F)c1nnc(C)n1-2` [Example 25, 4-(4-chlorophenyl)-6-((2-fluoropyridin-3-yl)methyl)-2,3,9-trimethyl-6H-thieno[2,3-e][1,2,4]triazolo[3,4-c][1,2,4]triazepine] the figure was 39.8%.
Turning to `Cc1sc2c(c1C)C(c1ccccc1)=NN(Cc1ccccn1)c1nnc(C)n1-2` [Example 31, 2,3,9-trimethyl-4-phenyl-6-(pyridin-2-ylmethyl)-6H-thieno[2,3-e][1,2,4]triazolo[3,4-c][1,2,4]triazepine], the “Limb edema suppression rate(%)” value in series [1] is listed as 68.9%.
The same measure, in the same setting: the value for `Cc1sc2c(c1C)C(c1ccc(Cl)cc1)=NN(Cc1cccnc1Cl)c1nnc(C)n1-2` [Example 38, 4-(4-chlorophenyl)-6-((2-chloropyridin-3-yl)methyl)-2,3,9-trimethyl-6H-thieno[2,3-e][1,2,4]triazolo[3,4-c][1,2,4]triazepine] was 11.9%.
Broadly, the AUC(0-inf) is total exposure, with the tail of the curve extrapolated. A high value points to high exposure. One may read the AUC(0-t) as the area under the concentration-time curve up to a stated or last time point. Broadly, the half-life is how long it takes for the measured level to halve. A lower half-life goes with fast loss. By Cmax is commonly meant the peak of the concentration-time curve. In general, MRT refers to the average time that molecules of a dose stay in the body. By Tmax is commonly meant the time from dosing to the highest level. As to `CC(=O)Nc1ccc(C2=NN(Cc3cccnc3)c3nnc(C)n3-c3sc(C)c(C)c32)cc1` [Example 71, N-(4-(2,3,9-trimethyl-6-(pyridin-3-ylmethyl)-6H-thieno[2,3-e][1,2,4]triazolo[3,4-c][1,2,4]triazepin-4-yl)phenyl)acetamide], the concentration at 0.5 h in series [2] (male, LEW/CrlCrlj, rat, 10 mg/kg, plasma, 0.5 h after oral 2 mg/mL solution at 5 mL/kg, mean n = 4, read-out: Concentration (ng/mL), sampling time 0.5 h) was determined as 22.1 ng/mL. In series [2] (male, LEW/CrlCrlj, rat, 10 mg/kg, plasma, 1 h after oral 2 mg/mL solution at 5 mL/kg, mean n = 4, read-out: Concentration (ng/mL), sampling time 1 h), the concentration at 1 h was 14.8 ng/mL. The concentration at 3 h in series [2] (male, LEW/CrlCrlj, rat, 10 mg/kg, plasma, 3 h after oral 2 mg/mL solution at 5 mL/kg, mean n = 4, read-out: Concentration (ng/mL), sampling time 3 h) was 4.23 ng/mL. Further, the concentration at 6 h in series [2] (male, LEW/CrlCrlj, rat, 10 mg/kg, plasma, 6 h after oral 2 mg/mL solution at 5 mL/kg, mean n = 4, read-out: Concentration (ng/mL), sampling time 6 h) came out at 1.46 ng/mL. For the same compound, in series [2] (setting [3]), the AUC(0-inf) worked out at 61.8 ng·h/mL, the area under the curve AUC(0-t) is 42.3 ng·h/mL and the half-life is 1.31 h. In addition, the highest concentration (Cmax) in series [2] (male, LEW/CrlCrlj, rat, plasma, 10 mg/kg, oral 2 mg/mL solution at 5 mL/kg, mean n = 4, read-out: Cmax) came out at 22.4 ng/mL. Further, the mean residence time (MRT) in series [2] (male, LEW/CrlCrlj, rat, plasma, 10 mg/kg, oral 2 mg/mL solution at 5 mL/kg, mean n = 4, read-out: MRT) was found to be 1.82 h. The Tmax in series [2] (male, LEW/CrlCrlj, rat, plasma, 10 mg/kg, oral 2 mg/mL solution at 5 mL/kg, mean n = 4, read-out: Tmax) came out at 0.75 h. Also, the Kel in series [2] (oral 2 mg/mL solution at 5 mL/kg, mean n = 4) was determined as 0.55 h⁻¹. For the same compound, the “Limb edema suppression rate(%)” value in series [1] turned out to be 93.8%.
